# Data from patent publication US20050004163A1, “3-(diarylmethylene)-8-azabicyclo[3.2.1]octane derivatives” (priority 2000, published 2005).
# Target: T1, μ-opioid receptor (Rattus norvegicus, UniProt P33535)
# T1 construct: the forebrains are homogenized in Tris buffer in a Teflon®-glass homogenizer; from tissue; host or cells: forebrain of male Wistar rats (particulate membrane preparation)
# Assay: Rat brain μ-opioid receptor binding assay ([3H]DAMGO)
# Conditions: 10 nM solutions of the compounds, read-out: MOR binding Ki
# Outline: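 Rat forebrain membranes from male Wistar rats, prepared in 50 mM Tris HCl pH 7.4, used for [3H]DAMGO binding. Filter-bound radioactivity measured by scintillation counting.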
# T1 sequence (P33535 whole entry): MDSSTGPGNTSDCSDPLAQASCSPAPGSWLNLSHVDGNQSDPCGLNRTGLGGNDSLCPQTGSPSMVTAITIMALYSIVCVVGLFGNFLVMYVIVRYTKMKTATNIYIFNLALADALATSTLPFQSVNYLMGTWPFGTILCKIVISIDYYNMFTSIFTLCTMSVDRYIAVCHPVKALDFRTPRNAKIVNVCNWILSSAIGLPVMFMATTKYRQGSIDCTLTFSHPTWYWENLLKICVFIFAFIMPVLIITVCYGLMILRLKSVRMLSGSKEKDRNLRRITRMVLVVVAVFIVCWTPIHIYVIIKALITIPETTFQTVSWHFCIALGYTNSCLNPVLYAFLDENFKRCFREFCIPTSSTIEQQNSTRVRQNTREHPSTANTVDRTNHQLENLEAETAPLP
row,SMILES,Ki [nM]
1,CCNC(=O)c1ccc(C=C2CC3CCC(C2)N3Cc2cccs2)cc1 [Cpd 61],71.2
2,CCNC(=O)c1ccc(C(=C2CC3CCC(C2)N3Cc2ccco2)c2ccc(C(=O)O)cc2)cc1 [Cpd 96],63.5
3,CCNC(=O)c1ccc(C(=C2CC3CCC(C2)N3CC=C(C)C)c2nnn[nH]2)cc1 [Cpd 147],109
4,CCNC(=O)c1ccc(C(=C2CC3CCC(C2)N3Cc2ccoc2)c2ccc3c(c2)OCO3)cc1 [Cpd 10],1.06
5,CCNC(=O)c1ccc(C(=C2CC3CCC(C2)N3Cc2nccs2)c2ccc(C(N)=O)cc2)cc1 [Cpd 188],491
6,"CCNC(=O)c1ccc(C(=C2CC3CCC(C2)N3Cc2ccsc2)c2ccc(CO)cc2)cc1 (single isomer, unassigned) [Cpd 206]",80.1
7,CCNC(=O)c1ccc(C(Br)=C2CC3CCC(C2)N3Cc2sccc2C)cc1 [Cpd 28],69.6
8,CCNC(=O)c1ccc(C(=C2CC3CCC(C2)N3Cc2ccc(C(=O)O)o2)c2ccccc2)cc1 [Cpd 95],421
9,CCNC(=O)c1ccc(C(Br)=C2CC3CCC(C2)N3Cc2ccsc2)cc1 [Cpd 23],6.23

# Same assay, conditions: MOR binding Ki
row,SMILES,Ki [nM]
1,CCNC(=O)c1ccc(C(=C2CC3CCC(C2)N3Cc2ccco2)c2ccc(CO)cc2)cc1 [Cpd 192],18.6
2,CCNC(=O)c1ccc(C(=C2CC3CCC(C2)N3Cc2ccccn2)c2cc(N)cc(C(=O)O)c2)cc1 [Cpd 112],10000
3,CCNC(=O)c1ccc(C(=C2CC3CCC(C2)N3Cc2ccco2)c2nnn[nH]2)cc1 [Cpd 146],15.2
4,CCNC(=O)c1ccc(C(=C2CC3CCC(C2)N3Cc2ccoc2)c2nnn[nH]2)cc1 [Cpd 144],212
5,"CCNC(=O)c1ccc(/C(=C2\C[C@H]3CC[C@@H](C2)N3Cc2ccccn2)c2ccc(C(=O)N(C)C)cc2)cc1 [Cpd 113, N-Ethyl-4-[N′,N′-dimethylbenzamide-(8-pyridin-2-ylmethyl-8-aza-bicyclo[3.2.1]oct-3-ylidene)-methyl]-benzamide]",36.6
6,CCNC(=O)c1ccc(C(=C2CC3CCC(C2)N3Cc2ccoc2)c2cccc(CO)c2)cc1 [Cpd 178],0.81
7,CCNC(=O)c1ccc(C(=C2CC3CCC(C2)N3Cc2ccsc2)c2ccc(S(N)(=O)=O)cc2)cc1 [Cpd 139],1.54
8,CCNC(=O)c1ccc(C(=C2CC3CCC(C2)N3CCc2ccccc2)c2ccc(NS(C)(=O)=O)cc2)cc1 [Cpd 185],58.9
9,CCN(CC)C(=O)c1ccc(C(=C2CC3CCC(C2)N3C=O)c2ccccc2)cc1 [Cpd 199],5340
10,CCNC(=O)c1ccc(C(=C2CC3CCC(C2)N3Cc2sccc2C)c2cnc3ccccc3c2)cc1 [Cpd 18],561
11,"CCNC(=O)c1ccc(C(=C2CC3CCC(C2)N3C(=O)c2cccs2)c2cccnc2)cc1 [Cpd 208, N-Ethyl-4-{pyridin-3-yl-[8-(thiophene-2-carbonyl)-8-aza-bicyclo[3.2.1]oct-3-ylidene]-methyl}-benzamide]",61.7
12,CCNC(=O)c1ccc(C(=C2CC3CCC(C2)N3Cc2ccccn2)c2cccc(-c3nnn[nH]3)c2)cc1 [Cpd 165],54.1
13,CCNC(=O)c1ccc(C(=C2CC3CCC(C2)N3Cc2ccc3ccccc3n2)c2cncnc2)cc1 [Cpd 101],113
14,"CCNC(=O)c1ccc(C(=C2CC3CCC(C2)N3Cc2ccsc2)c2cccc(-c3nnn[nH]3)c2)cc1 (single isomer, unassigned) [Cpd 216]",12.1
15,CCNC(=O)c1ccc(C(=C2CC3CCC(C2)N3CCc2ccccc2)c2ccc(C(=O)O)cc2)cc1 [Cpd 99],5290
16,CCNC(=O)c1ccc(C=C2CC3CCC(C2)N3Cc2c[nH]cn2)cc1 [Cpd 46],5480
17,CCNC(=O)c1ccc(C(=C2CC3CCC(C2)N3Cc2nccs2)c2ccc(NS(C)(=O)=O)cc2)cc1 [Cpd 187],121
18,CCNC(=O)c1ccc(C(=C2CC3CCC(C2)N3Cc2nccs2)c2nnn[nH]2)cc1 [Cpd 150],73.8
19,CCNC(=O)c1ccc(C(Br)=C2CC3CCC(C2)N3Cc2cccs2)cc1 [Cpd 40],8.97
20,"CCNC(=O)c1ccc(C(=C2C[C@H]3CC[C@@H](C2)N3C(=O)Cc2ccccc2)c2cccnc2)cc1 [Cpd 218, N-Ethyl-4-[((1S,5R)-8-phenylacetyl-8-aza-bicyclo[3.2.1]oct-3-ylidene)-pyridin-3-yl-methyl]-benzamide]",3.54
21,CCNC(=O)c1ccc(C(=C2CC3CCC(C2)N3CCc2ccccc2)c2nnn[nH]2)cc1 [Cpd 149],63.7

row,SMILES,Ki [nM]
1,CCNC(=O)c1ccc(C(=C2CC3CCC(C2)N3Cc2ccco2)c2ccc3c(c2)OCO3)cc1 [Cpd 8],7.41
2,CCNC(=O)c1ccc(C=C2CC3CCC(C2)N3Cc2nccs2)cc1 [Cpd 133],581
3,CCNC(=O)c1ccc(C(=C2CC3CCC(C2)N3Cc2ccc3ccccc3n2)c2cccnc2)cc1 [Cpd 71],14.6
4,CCNC(=O)c1ccc(C(=C2CC3CCC(C2)N3Cc2ccoc2)c2ccc(C(N)=O)cc2)cc1 [Cpd 177],1.34
5,"CCNC(=O)c1ccc(C(=C2CC3CCC(C2)N3Cc2ccco2)c2cccc(C(=O)O)c2)cc1 [Cpd 80, 3-[(4-Ethylcarbamoyl-phenyl)-(8-furan-2-ylmethyl-8-aza-bicyclo[3.2.1]oct-3-ylidene)-methyl]-benzoic acid]",119
6,CCNC(=O)c1ccc(C(=C2CC3CCC(C2)N3Cc2ccsc2)c2cccc(CO)c2)cc1 [Cpd 189],13.7
7,"CCNC(=O)c1ccc(C(Br)=C2C[C@H]3CC[C@@H](C2)N3)cc1 (single isomer, unassigned) [Cpd 92]",115
8,"CCNC(=O)c1ccc(C=C2C[C@H]3CC[C@@H](C2)N3CCc2ccccc2)cc1 (single isomer, unassigned) [Cpd 41, (+)—N-Ethyl-4-(8-phenethyl-8-aza-bicyclo[3.2.1]oct-3-ylidenemethyl)-benzamide]",124
9,CCNC(=O)c1ccc(C=C2CC3CCC(C2)N3Cc2ccco2)cc1 [Cpd 34],1420
10,"CCNC(=O)c1ccc(C(=C2CC3CCC(C2)N3)c2nnn[nH]2)cc1 (single isomer, unassigned) [Cpd 201]",12300
11,CCNC(=O)c1ccc(C(=C2CC3CCC(C2)N3Cc2ccoc2)c2ccc(S(N)(=O)=O)cc2)cc1 [Cpd 138],49.5
12,CCNC(=O)c1ccc(C(=C2CC3CCC(C2)N3Cc2cccs2)c2cnc3ccccc3c2)cc1 [Cpd 64],30.8
13,CCNC(=O)c1ccc(C(=C2CC3CCC(C2)N3Cc2cccs2)c2ccc(S(N)(=O)=O)cc2)cc1 [Cpd 141],1.05
14,CCNC(=O)c1ccc(C(=C2CC3CCC(C2)N3CCc2ccccc2)c2cccc(CN)c2)cc1 [Cpd 158],12
15,CCNC(=O)c1ccc(C(=C2CC3CCC(C2)N3Cc2ccc3ccccc3n2)c2ccc3c(c2)OCO3)cc1 [Cpd 9],34.1
16,"CCNC(=O)c1ccc(C(Br)=C2CC3CCC(C2)N3Cc2ccoc2)cc1 (single isomer, unassigned) [Cpd 211]",0.23
17,CCNC(=O)c1ccc(C(=C2CC3CCC(C2)N3Cc2ccc3ccccc3n2)c2cccc(C(=O)O)c2)cc1 [Cpd 85],537
18,CCNC(=O)c1ccc(C(=C2CC3CCC(C2)N3Cc2sccc2C)c2ccc3c(c2)OCO3)cc1 [Cpd 12],128
19,"CCNC(=O)c1ccc(C=C2CC3CCC(C2)N3CCC(C#N)(c2ccccc2)c2ccccc2)cc1 [Cpd 106, 4-[8-(3-Cyano-3,3-diphenylpropyl)-8-aza-bicyclo[3.2.1]oct-3-ylidenemethyl]-N-ethyl-benzamide]",53.6
20,CCNC(=O)c1ccc(C(=C2CC3CCC(C2)N3CC=C(C)C)c2cc(N)cc(C(=O)O)c2)cc1 [Cpd 114],4830
